Test [1] has as its target T1, c-Met (Homo sapiens, UniProt P08581). In words: Delfia autophosphorylation kinase assay on the c-Met. It is filed as biochemical. The arrangement: The purified His6 tagged cytoplasmic domain of c-Met was diluted to a concentration of 500 ng/ml; host or cells: Sf9 insect cells (baculovirus, pFastBacHTa). To be noted: His6 tagged cytoplasmic domain of c-Met, 1 μM ATP; read-out: cMet Delfia autophos IC-50. As for the experimental part: A DELFIA time resolved fluorescence assay was developed for screening of compounds that decreases the autophosphorylation thus the kinase activity of c-Met. The DELFIA assay is non-radioactive. The autophosphorylation of the c-Met is measured by an anti-phosphotyrosine antibody coupled to an Europium tag.
A major advantage of this format is that it allowed for the development of an autophosphorylation assay using Ni-chelate plates which bind the hexa-his tag on the recombinant Met kinase. The autophosphorylation assay allows one to use a known substrate, Met kinase itself, for the phosphorylation.
The assay procedure for screening is as follows. The purified His6 tagged cytoplasmic domain of c-Met was diluted to a concentration of 500 ng/ml in enzyme dilution buffer (50 mM Tris-HCl, pH8.0, 0.1% BSA) and dispensed to assay plates at a volume of 50 μl per well. Black opaque HisGrab Nickel coated 96 well plates (Pierce, Rockford, Ill.) were selected for use. Next, 2.5 μl of compound in 40% DMSO was added to test wells, 2.5 μl of 40% DMSO only was added to the negative control wells. The autophosphorylation reaction was initiated upon the addition of 50 μl of reaction buffer, 50 mM Tris-HCl, pH 8.0, 10 mM MgCl2, 0.1 mM Na3VO4, 1 mM DTT, 1 μM ATP. Plates were incubated at room temperature for 1 hour followed by 2 washes with 200 μl/well of PBS. Europium conjugated anti-phosphotyrosine antibody, Eu-PY20 from Perkin Elmer was diluted to 50 ng/ml in Delfia AB buffer (Perkin Elmer, Boston, Mass.), added to the 96 well assay plates at a volume of 100 μl/well, and incubated at room temperature for 2 hours. Assay plates were then washed 4 times each with 200 μl/well of Delfia wash buffer (Perkin Elmer). After the final wash 150 μl of Delfia Enhancement solution (Perkin Elmer) was added to each well of the assay plate and incubated at room temperature for 1 hour. Plates were read on an LJL Analyst instrument (Molecular Devices; Sunnyvale, Calif.) with filter settings of 360 excitation, 620 emission, and 410 dichroic. IC50 values were calculated using Graphpad Prism software (Graphpad Software; San Diego, Calif.).
Target sequence in this assay (P08581 956-1390 limits assumed): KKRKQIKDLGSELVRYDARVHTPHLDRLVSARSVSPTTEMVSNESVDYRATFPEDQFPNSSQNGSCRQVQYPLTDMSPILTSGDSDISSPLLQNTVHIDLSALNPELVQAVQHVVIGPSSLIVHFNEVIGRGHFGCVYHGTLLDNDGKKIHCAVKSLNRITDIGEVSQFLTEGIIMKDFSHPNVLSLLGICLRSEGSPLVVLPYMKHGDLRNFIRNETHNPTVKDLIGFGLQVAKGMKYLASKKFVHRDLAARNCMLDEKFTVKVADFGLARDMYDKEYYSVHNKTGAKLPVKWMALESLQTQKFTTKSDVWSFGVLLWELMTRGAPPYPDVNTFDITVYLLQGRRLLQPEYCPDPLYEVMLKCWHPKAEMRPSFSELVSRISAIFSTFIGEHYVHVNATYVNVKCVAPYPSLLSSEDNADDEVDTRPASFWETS

The target of test [2] is T1, c-Met. The experiment in a line: Cell based ELISA assay for HGF stimulated c-Met phosphorylation in S114 cells. Set-up: expressed in transfected cells; host or cells: S114 (murine NIH 3T3 derived). To be noted: read-out: c-Met Cell ELISA IC-50. As for the experimental part: A cell based ELISA assay was developed to evaluate the ability of compounds to inhibit HGF stimulated c-Met phosphorylation in cells.
S114 cells were seeded to a 96 well tissue culture treated dish at a concentration of 5×10^4 per well. After a 16-20 hour incubation, culture medium was removed and replaced with serum free medium supplemented with 0.5% BSA. Test compound was then added and incubated with the cells for 60 minutes, followed by the addition of 1 μl HGF at […] for 15 minutes. […] Following another 1 hour incubation at room temperature the plates were washed three times with Delfia wash buffer (Perkin Elmer). After the final wash, […] of Delfia enhancer solution (Perkin Elmer) was added and allowed to incubate for 60 minutes. Plates were read on an LJL Analyst instrument (Molecular Devices; Sunnyvale, Calif.) with filter settings of 360 excitation, 620 emission, and 410 dichroic. IC50 values were calculated using Graphpad Prism software (Graphpad Software; San Diego, Calif.).
Target sequence in this assay (P08581 25-1390): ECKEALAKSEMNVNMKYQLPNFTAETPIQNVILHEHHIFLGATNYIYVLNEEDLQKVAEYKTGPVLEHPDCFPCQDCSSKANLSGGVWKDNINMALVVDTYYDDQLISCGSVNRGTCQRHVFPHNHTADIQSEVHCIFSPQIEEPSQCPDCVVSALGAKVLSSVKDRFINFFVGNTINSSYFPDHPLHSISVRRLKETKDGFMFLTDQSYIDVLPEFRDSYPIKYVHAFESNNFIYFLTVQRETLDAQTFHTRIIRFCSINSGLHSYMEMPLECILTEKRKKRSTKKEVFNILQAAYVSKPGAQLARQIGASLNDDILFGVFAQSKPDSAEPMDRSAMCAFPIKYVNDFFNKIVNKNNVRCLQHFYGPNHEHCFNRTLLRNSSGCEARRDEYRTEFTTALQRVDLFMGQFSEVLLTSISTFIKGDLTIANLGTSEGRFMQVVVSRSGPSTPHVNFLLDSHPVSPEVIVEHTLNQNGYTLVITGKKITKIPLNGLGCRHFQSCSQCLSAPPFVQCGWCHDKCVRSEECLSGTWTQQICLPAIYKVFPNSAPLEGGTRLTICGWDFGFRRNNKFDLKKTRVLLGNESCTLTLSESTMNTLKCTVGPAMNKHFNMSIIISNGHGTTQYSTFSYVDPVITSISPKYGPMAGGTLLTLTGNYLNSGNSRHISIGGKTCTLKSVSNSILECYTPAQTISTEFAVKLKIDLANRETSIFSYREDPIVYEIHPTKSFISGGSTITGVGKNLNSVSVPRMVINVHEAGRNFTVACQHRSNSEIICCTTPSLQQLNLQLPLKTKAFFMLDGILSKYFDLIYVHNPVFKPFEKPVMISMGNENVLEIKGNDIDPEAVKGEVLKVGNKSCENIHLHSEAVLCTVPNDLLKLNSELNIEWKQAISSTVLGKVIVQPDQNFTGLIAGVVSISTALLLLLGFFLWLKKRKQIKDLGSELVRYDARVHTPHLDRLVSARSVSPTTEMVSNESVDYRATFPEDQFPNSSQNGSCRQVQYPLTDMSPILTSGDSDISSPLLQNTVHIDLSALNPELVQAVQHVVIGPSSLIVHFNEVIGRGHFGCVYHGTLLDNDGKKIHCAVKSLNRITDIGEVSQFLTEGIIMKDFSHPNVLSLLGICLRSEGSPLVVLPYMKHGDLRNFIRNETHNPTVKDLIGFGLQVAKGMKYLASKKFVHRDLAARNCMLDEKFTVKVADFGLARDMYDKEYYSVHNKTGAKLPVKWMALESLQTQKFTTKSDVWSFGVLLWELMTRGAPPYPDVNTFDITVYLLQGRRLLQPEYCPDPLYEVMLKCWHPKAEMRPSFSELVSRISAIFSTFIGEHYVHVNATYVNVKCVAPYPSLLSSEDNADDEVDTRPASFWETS

For `CCOC(=O)c1ccc(-c2ccc3nnc(Cc4ccc(O)cc4)n3n2)s1` [Example 48, 5-[3-(4-Hydroxy-benzyl)-[1,2,4]triazolo[4,3-b]pyridazin-6-yl]-thiophene-2-carboxylic acid ethyl ester], the IC50 worked out at 2 nM on c-Met [1] and 14 nM on c-Met [2].

Turning to `CN(C)CCCNC(=O)c1ccc(-c2ccc3nnc(Cc4ccc(O)cc4)n3n2)s1` [Example 49, 5-[3-(4-Hydroxy-benzyl)-[1,2,4]triazolo[4,3-b]pyridazin-6-yl]-thiophene-2-carboxylic acid (3-dimethylamino-propyl)-amide], the figures for the IC50 at c-Met [1] and on c-Met [2] were 2.1 nM and 343 nM, respectively.

`CN1CCN(C(=O)c2ccc(-c3ccc4nnc(Cc5ccc6c(c5)CCO6)n4n3)s2)CC1` [Example 50, {5-[3-(2,3-Dihydro-benzofuran-5-ylmethyl)-[1,2,4]triazolo[4,3-b]pyridazin-6-yl]-thiophen-2-yl}-(4-methyl-piperazin-1-yl)-methanone]: the IC50 worked out at 2 nM at c-Met [1] and 12 nM on c-Met [2].

As to `COCCN(CCOC)C(=O)c1ccc(-c2ccc3nnc(Cc4ccc5c(c4)CCO5)n3n2)s1` [Example 51, 5-[3-(2,3-Dihydro-benzofuran-5-ylmethyl)-[1,2,4]triazolo[4,3-b]pyridazin-6-yl]-thiophene-2-carboxylic acid bis-(2-methoxy-ethyl)-amide], the IC50 came out at 0.2 nM on c-Met [1] and 8 nM on c-Met [2].

Regarding `O=C(NCCN1CCOCC1)c1ccc(-c2ccc3nnc(Cc4ccc5c(c4)CCO5)n3n2)s1` [Example 52, 5-[3-(2,3-Dihydro-benzofuran-5-ylmethyl)-[1,2,4]triazolo[4,3-b]pyridazin-6-yl]-thiophene-2-carboxylic acid (2-morpholin-4-yl-ethyl)-amide], the results for the IC50 at c-Met [1] and at c-Met [2] were 3 nM and 40 nM, respectively.

For the compound `CC(C)CCNC(=O)c1ccc(-c2ccc3nnc(Cc4ccc5c(c4)CCO5)n3n2)s1` [Example 53, 5-[3-(2,3-Dihydro-benzofuran-5-ylmethyl)-[1,2,4]triazolo[4,3-b]pyridazin-6-yl]-thiophene-2-carboxylic acid (3-methyl-butyl)-amide], the IC50 at c-Met [1] is 4 nM; at c-Met [2], 35 nM.

In the case of `CC(C)N1CCN(C(=O)c2ccc(-c3ccc4nnc(Cc5ccc6ncccc6c5)n4n3)s2)CC1` [Example 55, (4-Isopropyl-piperazin-1-yl)-[5-(3-quinolin-6-ylmethyl-[1,2,4]triazolo[4,3-b]pyridazin-6-yl)-thiophen-2-yl]-methanone], the IC50 on c-Met [1] and on c-Met [2] was 1 nM each time.

In the case of `CS(=O)(=O)N1CCN(C(=O)c2ccc(-c3ccc4nnc(Cc5ccc6ncccc6c5)n4n3)s2)CC1` [Example 56, (4-Methanesulfonyl-piperazin-1-yl)-[5-(3-quinolin-6-ylmethyl-[1,2,4]triazolo[4,3-b]pyridazin-6-yl)-thiophen-2-yl]-methanone], the IC50 at c-Met [1] was 0.9 nM; at c-Met [2], 23 nM.

For `COc1ccc(C(F)(F)c2nnc3ccc(-c4cccs4)nn23)cc1` [Example 58, 3-[Difluoro-(4-methoxy-phenyl)-methyl]-6-thiophen-2-yl-[1,2,4]triazolo[4,3-b]pyridazine], the results for the IC50 at c-Met [1] and at c-Met [2] were 95 nM and 314 nM, respectively.

Take `FC(F)(c1ccc2ncccc2c1)c1nnc2ccc(-c3cccnc3)nn12` [Example 59, 6-[Difluoro-(6-pyridin-3-yl-[1,2,4]triazolo[4,3-b]pyridazin-3-yl)-methyl]-quinoline]: the IC50 at c-Met [1] was 3 nM; at c-Met [2], 8 nM.

For `Cn1cc(-c2ccc3nnc(Cc4ccc5c(c4)CCO5)n3n2)cn1` [Example 62, 3-(2,3-Dihydro-benzofuran-5-ylmethyl)-6-(1-methyl-1H-pyrazol-4-yl)-[1,2,4]triazolo[4,3-b]pyridazine], the IC50 at c-Met [1] worked out at 20 nM; on c-Met [2], 270 nM.

As for `c1cnc2ccc(Cc3nnc4ccc(-c5cncnc5)nn34)cc2c1` [Example 64, 6-(6-Pyrimidin-5-yl-[1,2,4]triazolo[4,3-b]pyridazin-3-ylmethyl)-quinoline], the IC50 on c-Met [1] worked out at 17 nM; on c-Met [2] it was 170 nM.

Take `c1cnc2ccc(Cc3nnc4ccc(-c5cnc6ccccc6c5)nn34)cc2c1` [Example 65, 6-(6-Quinolin-3-yl-[1,2,4]triazolo[4,3-b]pyridazin-3-ylmethyl)-quinoline]: the results for the IC50 on c-Met [1] and at c-Met [2] were 0.3 nM and 2 nM, respectively.

Consider `FC(F)(c1ccc2ncccc2c1)c1nnc2ccc(-c3cnc4ccccc4c3)nn12` [Example 66, 6-[Difluoro-(6-quinolin-3-yl-[1,2,4]triazolo[4,3-b]pyridazin-3-yl)-methyl]-quinoline], for which the IC50 at c-Met [1] worked out at 0.9 nM; at c-Met [2] it was 5 nM.

With `COc1ccc(Cn2cnc3ccc(Cc4nnc5ccc(-c6cccnc6)nn45)cc3c2=O)cc1` [Example 68, 3-(4-Methoxy-benzyl)-6-(6-pyridin-3-yl-[1,2,4]triazolo[4,3-b]pyridazin-3-ylmethyl)-3H quinazolin-4-one], the IC50 at c-Met [1] worked out at 2 nM; on c-Met [2], 30 nM.

For `O=c1[nH]cnc2ccc(Cc3nnc4ccc(-c5cccnc5)nn34)cc12` [Example 69, 6-(6-Pyridin-3-yl-[1,2,4]triazolo[4,3-b]pyridazin-3-ylmethyl)-3H-quinazolin-4-one], the IC50 at c-Met [1] was 17 nM; at c-Met [2], more than 1000 nM.

`Cn1cc(-c2ccc3nnc(Cc4ccc5ncncc5c4)n3n2)cn1` [Example 70, 6-[6-(1-Methyl-1H-pyrazol-4-yl)-[1,2,4]triazolo[4,3-b]pyridazin-3-ylmethyl]-quinazoline]: the IC50 at c-Met [1] turned out to be 25 nM; on c-Met [2], 140 nM.

In the case of `Cn1cc(-c2ccc3nnc(Cc4ccc5nccnc5c4)n3n2)cn1` [Example 71, 6-[6-(1-Methyl-1H-pyrazol-4-yl)-[1,2,4]triazolo[4,3-b]pyridazin-3-ylmethyl]-quinoxaline], the IC50 on c-Met [1] was found to be 20 nM; at c-Met [2], 99 nM.

With `c1cnc2ccc(Cc3nnc4ccc(-c5cc6ccccc6s5)nn34)cc2c1` [Example 72, 6-(6-Benzo[b]thiophen-2-yl-[1,2,4]triazolo[4,3-b]pyridazin-3-ylmethyl)-quinoline], the IC50 at c-Met [1] is 0.3 nM; at c-Met [2] it was 0.2 nM.

Regarding `[O-][n+]1cccc2cc(Cc3nnc4ccc(-c5cn[nH]c5)nn34)ccc21` [Example 73, 6-[6-(1H-Pyrazol-4-yl)-[1,2,4]triazolo[4,3-b]pyridazin-3-ylmethyl]-quinolin-1-ol], the figures for the IC50 on c-Met [1] and at c-Met [2] were 0.1 nM and 0.5 nM, respectively.

Regarding `OCCCn1cc(-c2ccc3nnc(Cc4ccc5ncccc5c4)n3n2)cn1` [Example 75, 3-[4(3-Quinolin-6-ylmethyl-[1,2,4]triazolo[4,3-b]pyridazin-6-yl)-pyrazol-1-yl]-propan-1-ol], the IC50 on c-Met [1] amounted to 0.8 nM; on c-Met [2], 60 nM.

In the case of `c1cnc2ccc(Cc3nnc4ccc(-c5cn[nH]c5)nn34)cc2c1` [Example 76, 6-[6-(1H-Pyrazol-4-yl)-[1,2,4]triazolo[4,3-b]pyridazin-3-ylmethyl]-quinoline], the IC50 amounted to 4 nM at c-Met [1] and 180 nM at c-Met [2].

With `Clc1ccc(-c2ccc3nnc(Cc4ccc5ncccc5c4)n3n2)s1` [Example 77], the IC50 was determined as 1.5 nM at c-Met [1] and 2 nM at c-Met [2].

As for `Cc1nc2ccc(-c3ccc4nnc(Cc5ccc6ncccc6c5)n4n3)cc2[nH]1` [Example 79, 6-[6-(2-Methyl-3H-benzoimidazol-5-yl)-[1,2,4]triazolo[4,3-b]pyridazin-3-ylmethyl]-quinoline], the values for the IC50 on c-Met [1] and on c-Met [2] were 30 nM and 3300 nM, respectively.

Source of the values: US8173654B2, “Triazolopyridazine compounds” (Janssen Pharmaceutica N.V., priority 2005, dated 2012).
